# Active and inactive are the calls of the source. The calls are words filed in the database; no cut-off is given here.
# Tests used:
# [1] = test system: PC-3; test: Induction of apoptosis in human PC3 cells assessed as decrease in cell membrane smoothness at 2.5 uM after 24 hrs by inverted microscopic analysis; assay type: functional, cell-based
# [2] = test system: PC-3; test: Induction of apoptosis in human PC3 cells assessed as shrunken nucleus at 2.5 uM after 24 hrs by inverted microscopic analysis; assay type: functional, cell-based
# [3] = test system: PC-3; test: Induction of apoptosis in human PC3 cells assessed as cell shrinkage at 2.5 uM after 24 hrs by Hoechst 33258 staining based inverted microscopic analysis; assay type: functional
# [4] = test system: PC-3; test: Induction of apoptosis in human PC3 cells assessed as chromatin condensation at 2.5 uM after 24 hrs by Hoechst 33258-based inverted fluorescence microscopy; assay type: functional, cell-based
# [5] = test system: PC-3; test: Induction of apoptosis in human PC3 cells assessed as formation of apoptotic bodies at 2.5 uM after 24 hrs by 33258-based inverted fluorescence microscopy; assay type: functional, cell-based
# [6] = test system: PC-3; test: Induction of apoptosis in human PC3 cells after 24 hrs by Annexin V-FITC/propidium iodide double staining based flow cytometry; assay type: functional, cell-based
# [7] = test system: PC-3; test: Induction of apoptosis in human PC3 cells assessed as activation of BAX at 2.5 uM after 24 hrs by Western blot analysis; assay type: functional, cell-based
# [8] = test system: PC-3; test: Induction of apoptosis in human PC3 cells assessed as suppression of bcl2 at 2.5 uM after 24 hrs by Western blot analysis; assay type: functional, cell-based
# [9] = test system: PC-3; test: Induction of apoptosis in human PC3 cells assessed as increase in cleaved caspase 9 levels at 2.5 uM after 24 hrs by Western blot analysis; assay type: functional, cell-based
# [10] = test system: PC-3; test: Induction of apoptosis in human PC3 cells assessed as increase in cleaved caspase 3 levels at 2.5 uM after 24 hrs by Western blot analysis; assay type: functional, cell-based
# [11] = test system: PC-3; test: Induction of apoptosis in human PC3 cells assessed as increase in survivin levels at 2.5 uM after 24 hrs by Western blot analysis; assay type: functional, cell-based
# [12] = test system: PC-3; test: Induction of apoptosis in human PC3 cells assessed as increase in cleaved PARP levels at 2.5 uM after 24 hrs by Western blot analysis; assay type: functional, cell-based
# [13] = test system: PC-3; test: Induction of apoptosis in human PC3 cells assessed as reduction in inactive pro-caspase-9 levels at 2.5 uM after 24 hrs by Western blot analysis; assay type: functional, cell-based
# [14] = test system: PC-3; test: Induction of apoptosis in human PC3 cells assessed as reduction in full length PARP protein levels at 2.5 uM after 24 hrs by Western blot analysis; assay type: functional, cell-based
# [15] = test system: HEL; test: Cytotoxicity against human HEL cells assessed as reduction in cell viability after 48 hrs by MTT assay; assay type: functional, cell-based
# [16] = test system: K562; test: Cytotoxicity against human K562 cells assessed as reduction in cell viability after 48 hrs by MTT assay; assay type: functional, cell-based
# [17] = test system: MDA-MB-231; test: Cytotoxicity against human MDA-MB-231 cells assessed as reduction in cell viability after 48 hrs by MTT assay; assay type: functional, cell-based
# [18] = test system: PC-3; test: Cytotoxicity against human PC3 cells assessed as reduction in cell viability after 48 hrs by MTT assay; assay type: functional, cell-based
# [19] = Cytotoxicity against human WM9 cells assessed as reduction in cell viability after 48 hrs by MTT assay; assay type: functional, cell-based
# [20] = test system: PC-3; test: Potency index, ratio of cisplatin IC50 to compound IC50 for human PC3 cells; assay type: functional
# [21] = test system: PC-3; test: Potency index, ratio of 5-fluorouracil IC50 to compound IC50 for human PC3 cells; assay type: functional
# [22] = test system: PC-3; test: Induction of apoptosis in human PC3 cells assessed as viable cells at 3 uM after 24 hrs by Annexin V-FITC/propidium iodide double staining based flow cytometry (reference value: 97.9%); assay type: functional; conditions: PC-3, 24 h, read-out: Activity
# [23] = test system: PC-3; test: Induction of apoptosis in human PC3 cells assessed as early apoptotic cells at 3 uM after 24 hrs by Annexin V-FITC/propidium iodide double staining based flow cytometry (reference value: 0.8%); assay type: functional
# [24] = test system: PC-3; test: Induction of apoptosis in human PC3 cells assessed as late apoptotic cells at 3 uM after 24 hrs by Annexin V-FITC/propidium iodide double staining based flow cytometry (reference value: 0.4%); assay type: functional
# [25] = test system: PC-3; test: Induction of apoptosis in human PC3 cells assessed as necrotic cells at 3 uM after 24 hrs by Annexin V-FITC/propidium iodide double staining based flow cytometry (reference value: 0.9%); assay type: functional
# [26] = test system: PC-3; test: Induction of apoptosis in human PC3 cells assessed as viable cells at 2 uM after 24 hrs by Annexin V-FITC/propidium iodide double staining based flow cytometry (reference value: 97.9%); assay type: functional; conditions: PC-3, 24 h, read-out: Activity
# [27] = test system: PC-3; test: Induction of apoptosis in human PC3 cells assessed as early apoptotic cells at 2 uM after 24 hrs by Annexin V-FITC/propidium iodide double staining based flow cytometry (reference value: 0.8%); assay type: functional
# [28] = test system: PC-3; test: Induction of apoptosis in human PC3 cells assessed as late apoptotic cells at 2 uM after 24 hrs by Annexin V-FITC/propidium iodide double staining based flow cytometry (reference value: 0.4%); assay type: functional
# [29] = test system: PC-3; test: Induction of apoptosis in human PC3 cells assessed as necrotic cells at 2 uM after 24 hrs by Annexin V-FITC/propidium iodide double staining based flow cytometry (reference value: 0.9%); assay type: functional
# [30] = test system: PC-3; test: Induction of apoptosis in human PC3 cells assessed as viable cells at 1 uM after 24 hrs by Annexin V-FITC/propidium iodide double staining based flow cytometry (reference value: 97.9%); assay type: functional; conditions: PC-3, 24 h, read-out: Activity
# [31] = test system: PC-3; test: Induction of apoptosis in human PC3 cells assessed as early apoptotic cells at 1 uM after 24 hrs by Annexin V-FITC/propidium iodide double staining based flow cytometry (reference value: 0.8%); assay type: functional
# [32] = test system: PC-3; test: Induction of apoptosis in human PC3 cells assessed as late apoptotic cells at 1 uM after 24 hrs by Annexin V-FITC/propidium iodide double staining based flow cytometry (reference value: 0.4%); assay type: functional
# [33] = test system: PC-3; test: Induction of apoptosis in human PC3 cells assessed as necrotic cells at 1 uM after 24 hrs by Annexin V-FITC/propidium iodide double staining based flow cytometry (reference value: 0.9%); assay type: functional
# [34] = test system: PC-3; test: Induction of apoptosis in human PC3 cells assessed as viable cells at 0.5 uM after 24 hrs by Annexin V-FITC/propidium iodide double staining based flow cytometry (reference value: 97.9%); assay type: functional; conditions: PC-3, 24 h, read-out: Activity
# [35] = test system: PC-3; test: Induction of apoptosis in human PC3 cells assessed as early apoptotic cells at 0.5 uM after 24 hrs by Annexin V-FITC/propidium iodide double staining based flow cytometry (reference value: 0.8%); assay type: functional
# [36] = test system: PC-3; test: Induction of apoptosis in human PC3 cells assessed as late apoptotic cells at 0.5 uM after 24 hrs by Annexin V-FITC/propidium iodide double staining based flow cytometry (reference value: 0.4%); assay type: functional
# [37] = test system: PC-3; test: Induction of apoptosis in human PC3 cells assessed as necrotic cells at 0.5 uM after 24 hrs by Annexin V-FITC/propidium iodide double staining based flow cytometry (reference value: 0.9%); assay type: functional
smiles,measurement,setting,value
COc1cc(NC(=S)Nc2ccc(F)cc2)c2cc1Oc1ccc(cc1)C[C@H]1c3cc(c(OC)cc3CCN1C)Oc1c(OC)c(OC)cc3c1[C@H](C2)N(C)CC3 [listing 1 of 2 here],Activity,[1],Active
same,Activity,[2],Active
same,Activity,[3],Active
same,Activity,[4],Active
same,Activity,[5],Active
same,Activity,[6],Dose-dependent effect
same,Activity,[7],Active
same,Activity,[8],Active
same,Activity,[9],Active
same,Activity,[10],Active
same,Activity,[11],Active
same,Activity,[12],Active
same,Activity,[13],Active
same,Activity,[14],Active
COc1cc(NC(=O)Nc2ccc(F)cc2)c2cc1Oc1ccc(cc1)C[C@H]1c3cc(c(OC)cc3CCN1C)Oc1c(OC)c(OC)cc3c1[C@H](C2)N(C)CC3,IC50,[15]; hel,2580 nM
same,IC50,[16]; k562,930 nM
same,IC50,[17]; mda-mb-231,3.06 µM
same,IC50,[18]; pc-3,770 nM
same,IC50,[19],3.49 µM
CCCCNC(=O)Nc1cc(OC)c2cc1C[C@H]1c3c(cc(OC)c(OC)c3Oc3cc4c(cc3OC)CCN(C)[C@H]4Cc3ccc(cc3)O2)CCN1C,IC50,[15]; hel,2670 nM
same,IC50,[16]; k562,2770 nM
same,IC50,[17]; mda-mb-231,5.28 µM
same,IC50,[18]; pc-3,680 nM
same,IC50,[19],3.66 µM
COc1cc(NC(=S)Nc2ccc(F)cc2)c2cc1Oc1ccc(cc1)C[C@H]1c3cc(c(OC)cc3CCN1C)Oc1c(OC)c(OC)cc3c1[C@H](C2)N(C)CC3 [listing 2 of 2 here],IC50,"[15]; Homo sapiens, HEL, 48 h",2550 nM
same,IC50,"[16]; Homo sapiens, K562, 48 h",1560 nM
same,IC50,"[17]; Homo sapiens, MDA-MB-231, 48 h",2.03 µM
same,IC50,"[18]; Homo sapiens, PC-3, 48 h",640 nM
same,IC50,"[19]; Homo sapiens, WM9, 48 h",2.6 µM
same,Ratio IC50,[20],26
same,Ratio IC50,[21],31
same,viability at 3 µM,[22],63.3%
same,Activity,[23],34.4%
same,Activity,[24],2.1%
same,Activity,[25],0.1%
same,viability at 2 µM,[26],83.3%
same,Activity,[27],13.6%
same,Activity,[28],2.8%
same,Activity,[29],0.4%
same,viability at 1 µM,[30],87.7%
same,Activity,[31],11.63%
same,Activity,[32],0.7%
same,Activity,[33],0.3%
same,viability at 0.5 µM,[34],93.3%
same,Activity,[35],5.3%
same,Activity,[36],0.9%
same,Activity,[37],0.5%

# Reference: ChEMBL document CHEMBL4138174, “Design and synthesis of novel C14-urea-tetrandrine derivatives with potent anti-cancer activity” (Eur J Med Chem, 2018)
